The values that follow come from ChEMBL document CHEMBL1201862, “PubChem BioAssay data set” (2004).

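Compound exposure: 48 hours, 5 concentrations, 96-well plates. GI50: concentration for 50% inhibition of growth.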 Activity calls are given as the source filed them. No stated cut-off is given here; in the data, active = GI50 up to about 1.1 µM and inactive = higher.

Some test systems named below: K562; SK-MEL-2; RPMI-8226; SK-MEL-28; HCT-116; SW-620; SF-295; OVCAR-4; A549; Malme-3M; SNB-19; UO-31; SN12C; HCC 2998; SR; IGROV-1; HT-29; MDA-MB-231; PC-3.
Experiment in all cases: inhibition of tumour cell growth, NCI panel, 48 h

As for `O=C(Nc1cccc(O)c1)C(=O)C(C(=O)c1ccc(Cl)c(Cl)c1)C1OC(=O)c2ccccc21` (centres undefined), the GI50 in the test with K562 was 15 µM (inactive); in the test with SK-MEL-2, 17.5 µM (inactive); in the test with RPMI-8226 it was 16 µM (inactive); in the test with SK-MEL-28, 21.6 µM (inactive); with HCT-116, 25.7 µM (inactive); in the test on SW-620, 14.4 µM (inactive). Further, the GI50 was 20.3 µM (inactive) in the test with SF-295; 13.3 µM (inactive) in the test with OVCAR-4; 37 µM (inactive) with A549; 14.4 µM (inactive) in the test on Malme-3M; 13.3 µM (inactive) in the test on SNB-19; 13.7 µM (inactive) in the test on UO-31. Besides, the GI50 in the test with SN12C was 18.6 µM (inactive); with HCC 2998, 15.5 µM (inactive); in the test with SR it was 4.44 µM (inactive); in the test on IGROV-1, 22.2 µM (inactive); with HT-29 it was 27.4 µM (inactive).
On to `NCCSC1(O)C(=O)c2ccccc2-c2ccccc21` (centres undefined), for which the GI50 in the test with K562 was 0.382 µM (active); in the test on MDA-MB-231 it was 0.483 µM (active); in the test on SK-MEL-2 it was 1.61 µM (inactive); in the test with RPMI-8226, 0.0348 µM (active); in the test on SK-MEL-28, 1.21 µM (inactive); with HCT-116, 0.176 µM (active). Further, the GI50 with SW-620 is 1.52 µM (inactive); in the test with SF-295, < 0.01 µM (active); in the test on OVCAR-4, 0.207 µM (active); with A549, 0.719 µM (active); with Malme-3M it was 1 µM (active); with SNB-19 it was 1.53 µM (inactive). Further, the GI50 in the test on PC-3 is 1.25 µM (inactive); in the test with UO-31, 1.47 µM (inactive); with SN12C, 1.36 µM (inactive); in the test on SR it was 0.0472 µM (active); in the test with IGROV-1, 1.8 µM (inactive); in the test on HT-29 it was 1.21 µM (inactive).
For `Cc1c(C(=O)C/C(=N/NC(=O)C[n+]2ccccc2)C(=O)Nc2ccccc2)[n+]([O-])c2ccccc2[n+]1[O-]`, the GI50 in the test with K562, in the test on SK-MEL-2, in the test on RPMI-8226, in the test on SK-MEL-28, in the test on HCT-116 and in the test on SW-620 was > 100 µM (inactive) throughout. The GI50 in the test on SF-295, with OVCAR-4, in the test on A549, in the test with Malme-3M, in the test on SNB-19 and with UO-31 was > 100 µM (inactive) in each case. The GI50 in the test on SN12C is > 100 µM (inactive); in the test on HCC 2998 it was > 100 µM (inactive); in the test on SR, 87.5 µM (inactive); with IGROV-1, > 100 µM (inactive); in the test on HT-29, > 100 µM (inactive).
Take `CCC(=N\NC(N)=S)/C(C)=N/O`: the GI50 in the test on K562, with MDA-MB-231, in the test with SK-MEL-2, in the test on RPMI-8226, in the test with SK-MEL-28 and in the test on HCT-116 was > 100 µM (inactive) throughout. For the same molecule, the GI50 in the test with SW-620, with SF-295, in the test with OVCAR-4, in the test with A549, in the test with Malme-3M and in the test with SNB-19 was > 100 µM (inactive) each time. Further, the GI50 in the test on PC-3 is > 100 µM (inactive); with UO-31, 62.1 µM (inactive); with SN12C, > 100 µM (inactive); in the test with HCC 2998 it was > 100 µM (inactive); with IGROV-1, > 100 µM (inactive); with HT-29, > 100 µM (inactive).
With `CCC(CO)COC(=O)/C=C/C(=O)OCC(CC)CO` (centres undefined), the GI50 in the test with K562 is 48.6 µM (inactive); in the test with SK-MEL-2 it was > 100 µM (inactive); with RPMI-8226, 33.3 µM (inactive); in the test on SK-MEL-28, > 100 µM (inactive); in the test on HCT-116 it was > 74.3 µM (inactive); with SW-620, > 89.1 µM (inactive). In addition, the GI50 in the test on SF-295 was > 100 µM (inactive); with OVCAR-4, > 100 µM (inactive); with A549 it was > 100 µM (inactive); in the test on Malme-3M it was > 61 µM (inactive); in the test with SNB-19, > 100 µM (inactive); in the test with UO-31 it was > 100 µM (inactive). Further, the GI50 was > 100 µM (inactive) in the test on SN12C; > 100 µM (inactive) with HCC 2998; 30.9 µM (inactive) in the test on SR; > 100 µM (inactive) with IGROV-1; > 91 µM (inactive) in the test on HT-29.
Regarding `Cc1ccc(S(=O)(=O)OC(C=O)C(O)C(O)COC(c2ccccc2)(c2ccccc2)c2ccccc2)cc1` (centres undefined), the GI50 in the test on K562 is 16.9 µM (inactive); with SK-MEL-2 it was 16.2 µM (inactive); with RPMI-8226, 12.2 µM (inactive); with SK-MEL-28, 20.6 µM (inactive); in the test with HCT-116 it was 16.4 µM (inactive); with SW-620, 16.4 µM (inactive). In addition, the GI50 was 12.2 µM (inactive) in the test on SF-295; 18.2 µM (inactive) in the test on OVCAR-4; 18.2 µM (inactive) with A549; 19 µM (inactive) in the test on Malme-3M; 14.8 µM (inactive) in the test on SNB-19; 16.8 µM (inactive) in the test on UO-31. The GI50 with SN12C is 15.5 µM (inactive); with HCC 2998, 12 µM (inactive); with SR, 5.43 µM (inactive); in the test on IGROV-1, 15.1 µM (inactive); in the test with HT-29, 12.2 µM (inactive).
On to `N=C1C=C(N)C(=O)c2[nH]c(=O)ccc21`, for which the GI50 in the test on K562 was 1.91 µM (inactive); in the test on MDA-MB-231, 1.91 µM (inactive); in the test with SK-MEL-2 it was 2.36 µM (inactive); with RPMI-8226, 2.15 µM (inactive); in the test on SK-MEL-28, 20.6 µM (inactive); with HCT-116, 1.1 µM (active). In addition, the GI50 was 2.88 µM (inactive) in the test on SW-620; 17.3 µM (inactive) in the test with SF-295; 1.38 µM (inactive) with OVCAR-4; 2.48 µM (inactive) with A549; 2.39 µM (inactive) in the test with Malme-3M; 2.02 µM (inactive) in the test on SNB-19. Moreover, the GI50 with PC-3 was 1.36 µM (inactive); in the test on SN12C, 1.76 µM (inactive); in the test with HCC 2998, 19.3 µM (inactive); in the test on SR, 3.44 µM (inactive); with IGROV-1, 1.96 µM (inactive); with HT-29, 2.37 µM (inactive).
As for `C=C1CC(CCCl)(c2ccccc2)OC1=O` (centres undefined), the GI50 with K562 is 33.3 µM (inactive); in the test on SK-MEL-2, > 57.5 µM (inactive); in the test on RPMI-8226, 15.8 µM (inactive); in the test with SK-MEL-28 it was 16.2 µM (inactive); in the test with HCT-116 it was 22.9 µM (inactive); in the test with SW-620, 20.2 µM (inactive). Further, the GI50 was > 100 µM (inactive) in the test with SF-295; > 100 µM (inactive) in the test on OVCAR-4; > 71.9 µM (inactive) in the test with A549; 23.6 µM (inactive) in the test with Malme-3M; > 78.7 µM (inactive) in the test on SNB-19; 58.3 µM (inactive) with UO-31. Moreover, the GI50 in the test on SN12C is 31.5 µM (inactive); with HCC 2998, 35.7 µM (inactive); with SR, 20.1 µM (inactive); with IGROV-1, > 100 µM (inactive); in the test on HT-29, 33 µM (inactive).
In the case of `COc1nc(OC)nc(Sc2ccc(Sc3ccc(Sc4nc(OC)nc(OC)n4)cc3)cc2)n1`, the GI50 in the test on K562, in the test with SK-MEL-2, with RPMI-8226, with SK-MEL-28, with HCT-116 and in the test with SW-620 was > 100 µM (inactive) in each case. Besides, the GI50 in the test with SF-295, with OVCAR-4, with A549, with Malme-3M, with SNB-19 and with UO-31 was > 100 µM (inactive) in each case. The GI50 is > 100 µM (inactive) with SN12C; > 100 µM (inactive) in the test with HCC 2998; 7.52 µM (inactive) in the test with SR; > 100 µM (inactive) in the test with IGROV-1; > 100 µM (inactive) with HT-29.
Regarding `COc1c(OC2OC(CO)C(O)C(O)C2O)cc2c(c1OC)-c1ccc(OC)c(=O)cc1C(NC(C)=O)CC2` (centres undefined), the GI50 with K562 is > 97.3 µM (inactive); in the test on SK-MEL-2, 57.8 µM (inactive); in the test on RPMI-8226, > 100 µM (inactive); with SK-MEL-28 it was 61 µM (inactive); in the test on HCT-116, > 100 µM (inactive); in the test with SW-620, > 100 µM (inactive). The GI50 in the test with SF-295 was > 87.3 µM (inactive); in the test with OVCAR-4, > 100 µM (inactive); in the test on A549, > 100 µM (inactive); in the test on Malme-3M it was 81.7 µM (inactive); with SNB-19, > 100 µM (inactive); in the test with UO-31 it was > 100 µM (inactive). Further, the GI50 with SN12C was > 100 µM (inactive); in the test on HCC 2998 it was > 100 µM (inactive); with SR, > 100 µM (inactive); in the test on IGROV-1, > 84.1 µM (inactive); with HT-29 it was > 100 µM (inactive).
As to `CCn1c2ccccc2c2cc(Nc3cc(C)[nH]c(=O)n3)ccc21`, the GI50 in the test on K562 was 0.47 µM (active); with MDA-MB-231 it was > 100 µM (inactive); with SK-MEL-2, > 100 µM (inactive); in the test with SK-MEL-28, > 100 µM (inactive); in the test with HCT-116, > 100 µM (inactive); with SW-620, > 100 µM (inactive). Also, the GI50 is 4.53 µM (inactive) in the test with SF-295; > 100 µM (inactive) with OVCAR-4; > 100 µM (inactive) in the test on A549; > 100 µM (inactive) in the test on SNB-19; > 100 µM (inactive) with PC-3; > 100 µM (inactive) in the test on UO-31. In addition, the GI50 was > 100 µM (inactive) with SN12C, > 100 µM (inactive) with HCC 2998, 0.0199 µM (active) in the test with SR and > 100 µM (inactive) with HT-29.
